# Key:
# [1] = system: IL-2 production by activated CD4 cells; test: IL-2 ELISA of supernatants; format: cell-based, human; details: ELISA after 24 h of 3×28 bead stimulation of purified CD4 cells; FIG. 6
# Description: Cells are prepared as described above. Supernatants from cells stimulated 24 h are subjected to an IL-2 or TNF-α enzyme linked immunosorbant assay (ELISA) according to the manufacturer's instructions (Biosource International, Sunnyvale, Calif.).
# To study the mechanism behind FR901228 inhibition of CD4 cell proliferation, IL-2 and TNF-α production by activated CD4 cells was analyzed. […] The reason for this difference is currently unknown.
# [2] = system: activation markers on CD4 cells; test: Activation marker assays by flow cytometry; format: cell-based, human
# Text: The effect of FR901228 on the induction of various activation markers on CD4 cells is studied. In this regard, cells are labeled with one or more of the following antibodies: anti-human CD4 Ab (Immunotech, Fullerton, Calif.), FITC-coupled anti-human CD11a Ab (Pharmingen), FITC-coupled anti-human CD26 Ab (Pharmingen), FITC-coupled anti-human CD49d Ab (Coulter), FITC-coupled anti-human CD54 Ab (Pharmingen and Becton Dickinson), FITC-coupled anti-human CD95 Ab (Pharmingen), FITC-coupled anti-human CD134 Ab (Pharmingen), FITC-coupled anti-human CD25 Ab (Becton Dickinson, Fullerton, Calif.), FITC-coupled anti-human CD69 Ab (Becton Dickinson), FITC- or PE-coupled anti-human CD154 Ab (Becton Dickinson), or FITC- or PE- coupled IgG1 isotype control Ab. Cells, 2×10^5 are labeled for 20 minutes at 4° C. with 2 μl of each antibody in a final volume of 30 μl, washed and resuspended in 1% parformaldehyde (Sigma, St. Louis, Mo.). […] In contrast, CD69 induction is not affected by 100 ng/ml FR901228 (FIG. 5C).
# [3] = system: NOD mice; test: Diabetes onset in NOD mice; format: in vivo; details: 0.5 mg/kg i.p. every other day; ten NOD animals
# Description: FR901228 was dissolved in 10% DMSO in PBS and were administered i.p. to NOD or NODSCID mice every other day. Controls contained only the DMSO excipient (10% DMSO in PBS). […] 0.5 mg/kg of FR901228 was administered at each treatment to twenty animals (ten NOD animals and ten NODSCID animals). Every two weeks the number of mice in each treatment group that had become diabetic was evaluated by measuring blood glucose levels using a glucometer at bi-weekly intervals. A reading of more than 200 mg/dl of blood glucose on two consecutive observations was considered indicative of frank diabetes.
# [4] = system: CD154 on CD4 cells; test: CD154 expression on CD4 cells with or without IL-2; format: cell-based, human; details: 20 ng/ml added day three; 3×28 beads and/or 20 units/ml IL-2; read day 4; FIG. 9
# Description: The effect of FR901228 on the induction of the CD154 activation marker on CD4 cells is studied. In this regard, cells are labeled with FITC-coupled anti-human CD4 Ab (Immunotech, Fullerton, Calif.), PE-coupled anti-human CD154 Ab (Becton Dickinson, Fullerton, Calif.), or FITC- or PE-coupled IgG1 isotype control Ab. Cells, 2×10^5 are labeled for 20 minutes at 4° C. with 2 μl of each antibody in a final volume of 30 μl, washed and resuspended in 1% parformaldehyde (Sigma, St. Louis, Mo.). The cells are stimulated for four days in the presence of 3×28 beads and/or 20 units/ml IL-2 or an anti-IL-2 antibody at day three, FR901228 is added to the culture at a concentration of 20 ng/ml. On day 4, mean fluorescence intensity is measured by flow cytometry.
# [5] = system: Haras transfected mouse fibroblasts (NIH-3T3); details: background statement; cited from earlier work
# [6] = 3×28 beads, 20 ng/ml, FIGS. 8A–8B
compound,measurement,setting,value
C/C=C1\NC(=O)[C@H]2CSSCC/C=C/[C@H](CC(=O)N[C@H](C(C)C)C(=O)N2)OC(=O)[C@H](C(C)C)NC1=O [FR901228],lowest concentration that markedly inhibits IL-2 production,[1],10 ng/mL
same,CD69 induction,"[2]; 100 ng/ml, FIG. 5C",not affected
same,CD69 induction or activation induced downregulation of CD62L,[2]; [6],no significant affect
same,"induction of CD25, CD134, CD137w, CD154, CD11a, CD54, and CD95 on CD4 T-cells",[2]; [6],inhibition
same,lowest concentration at which CD154 expression is strongly suppressed,"[2]; after 3×28 bead stimulation, FIG. 5A",10 ng/mL
same,lowest concentration at which CD25 expression is strongly suppressed,"[2]; after 3×28 bead stimulation, FIG. 5B",10 ng/mL
same,development of frank diabetes during the 18 week study,[3],no NOD mouse treated with the compound developed frank diabetes
same,CD154 expression in presence or absence of IL-2,[4],suppression of CD154 expression
same,transformation of Haras transfected NIH-3T3,[5],inhibit transformation
